Patent publication US20160257697A1, “THIOPHENE-SUBSTITUTED TETRACYCLIC COMPOUNDS AND METHODS OFUSE THEREOF FOR THE TREATMENT OF VIRAL DISEASES” (priority 2013, published 2016)
Read-outs that look alike come from different tables or passages of the source.

Key:
Assay in all cases: microbe, parasite or virus in culture
Format in all cases: cell-based, Hepatitis C virus (HCV)
Conditions in all cases: Replicon Assay A
[1] = system: HCV replicon 1AY93H
Outline: (§1)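 Compound is added to replicon cells plated at 2000 cells/well (0.5% DMSO, 5% FBS). After 3 days the cells are washed and lysed, and HCV RNA and cyclophilin mRNA are quantified by multiplex RT-PCR against a standard curve of known replicon total RNA.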

[2] = system: HCV replicon 1A
Outline: as §1

[3] = system: HCV replicon 2B
Outline: as §1

[4] = read-out: 1A Y93H IC50, replicon 1AY93H
[5] = read-out: 1A Y93H IC50, HCV replicon 1A Y93H
[6] = read-out: 2B IC50, HCV replicon 2B
[7] = Hepatitis C virus, read-out: 1A Y93H IC50 (nM), replicon 1AY93H
[8] = Hepatitis C virus, read-out: 2B IC50 (nM), replicon 2B
[9] = Hepatitis C virus, read-out: 1A Y93H IC50, HCV replicon 1A Y93H
[10] = Hepatitis C virus, HCV replicon 1A
[11] = Hepatitis C virus, read-out: 2B IC50, HCV replicon 2B

SMILES | IC50 [1, 4] [nM] | IC50 ([2]; replicon 1A) [nM] | IC50 ([3]; read-out: 2B IC50, replicon 2B) [nM] | IC50 [1, 5] [nM] | IC50 ([2]; HCV replicon 1A) [nM] | IC50 [3, 6] [nM] | further results
COC(=O)N[C@H](C(=O)N1CCC[C@H]1c1ncc(-c2cc(F)c3c(c2)OC(c2sc(C4CC4)cc2C)n2c-3cc3cc(-c4cnc([C@@H]5CCCN5C(=O)[C@@H](NC(=O)OC)C(C)C)[nH]4)ccc32)[nH]1)C(C)C (single isomer, unassigned) [Compound 329] | 0.937 | 0.0012 | 0.605 | – | – | – | –
COC(=O)N[C@H](C(=O)N1CCC[C@H]1c1ncc(-c2ccc3c(c2)OC(c2cc4sccc4s2)n2c-3cc3cc(-c4c[nH]c([C@@H]5C[C@H]6C[C@H]6N5C(=O)[C@@H](NC(=O)OC)C(C)C)n4)ccc32)[nH]1)C(C)C (single isomer, unassigned) [Compound 718] | – | – | – | 0.11 | 0.0024 | 0.82 | –
COC(=O)N[C@H](C(=O)N1CCC[C@H]1c1ncc(-c2cc(F)c3c(c2)OC(c2cc(C)c(C(C)C)s2)n2c-3cc3cc(-c4cnc([C@@H]5CCCN5C(=O)[C@@H](NC(=O)OC)C(C)C)[nH]4)ccc32)[nH]1)C(C)C (mixture of isomers) [Compound 64] | – | – | – | – | – | – | IC50 [1, 7]: 0.15 nM; IC50 ([2]; Hepatitis C virus, replicon 1A): 0.004 nM; IC50 [3, 8]: 4.01 nM
COC(=O)N[C@H](C(=O)N1CCC[C@H]1c1ncc(-c2cc(F)c3c(c2)OC(c2cc4c(s2)CCC4)n2c-3cc3cc(-c4cnc([C@@H]5CCCN5C(=O)[C@@H](NC(=O)OC)C5CCOCC5)[nH]4)ccc32)[nH]1)C(C)C (single isomer, unassigned) [Compound 621] | – | – | – | 0.108 | 0.0031 | 0.835 | –
COC(=O)N[C@H](C(=O)N1CCC[C@H]1c1ncc(-c2cc(F)c3c(c2)OC(c2cc(F)c(C4CC4)s2)n2c-3cc3cc(-c4cnc([C@@H]5CCCN5C(=O)[C@@H](NC(=O)OC)C(C)C)[nH]4)ccc32)[nH]1)C(C)C (single isomer, unassigned) [Compound 71] | 1.09 | – | 3.85 | – | – | – | IC50 ([2]; Hepatitis C virus, replicon 1A): 0.0013 nM
COC(=O)N[C@H](C(=O)N1CCC[C@H]1c1ncc(-c2cc(F)c3c(c2)OC(c2ccc(CC(F)(F)F)s2)n2c-3cc3cc(-c4cnc([C@@H]5CCCN5C(=O)[C@@H](NC(=O)OC)C(C)C)[nH]4)ccc32)[nH]1)C(C)C (single isomer, unassigned) [Compound 124] | – | – | – | – | – | – | IC50 [1, 7]: 1.38 nM; IC50 ([2]; Hepatitis C virus, replicon 1A): 0.0018 nM; IC50 [3, 8]: 3.4 nM
COC(=O)NC(C(=O)N1CCC[C@H]1c1ncc(-c2ccc3c(c2)cc2n3C(c3ccc(C4CC4)s3)Oc3cc(-c4cnc([C@@H]5CCCN5C(=O)[C@@H](NC(=O)OC)C(C)C)[nH]4)cc(F)c3-2)[nH]1)C1CCOC(C)(C)C1 (single isomer, unassigned) [Compound 222] | 0.24 | 0.002 | 0.17 | – | – | – | –
COC(=O)N[C@H](C(=O)N1CCC[C@H]1c1ncc(-c2cc(C)c3c(c2)OC(c2cc4c(s2)CCC4)n2c-3cc3cc(-c4cnc([C@@H]5CCCN5C(=O)[C@@H](NC(=O)OC)C5C[C@@H](C)O[C@@H](C)C5)[nH]4)ccc32)[nH]1)C(C)C (single isomer, unassigned) [Compound 550] | – | – | – | 0.154 | 0.03 | 0.0435 | –
COC(=O)NC(C(=O)N1[C@@H]2C[C@@H]2C[C@H]1c1ncc(-c2ccc3c(c2)cc2n3C(c3cc4ccccc4s3)Oc3cc(-c4cnc([C@@H]5CCCN5C(=O)[C@@H](NC(=O)OC)C(C)C)[nH]4)cc(F)c3-2)[nH]1)C1C[C@@H](C)O[C@@H](C)C1 (single isomer, unassigned) [Compound 648] | – | – | – | – | 0.0036 | 1.7 | IC50 [1, 9]: 2.04 nM
COC(=O)N[C@H](C(=O)N1CCC[C@H]1c1ncc(-c2ccc3c(c2)cc2n3C(c3ccc(Cl)s3)Oc3cc(-c4cnc([C@@H]5CCCN5C(=O)[C@H](NC(=O)OC)C(C)C)[nH]4)cc(F)c3-2)[nH]1)C(C)C (mixture of isomers) [Compound 506] | – | – | – | – | – | – | IC50 [1, 9]: 0.397 nM; IC50 [2, 10]: 0.0171 nM; IC50 [3, 11]: 0.471 nM
COC(=O)N[C@H](C(=O)N1C[C@H](F)C[C@H]1c1ncc(-c2ccc3c(c2)cc2n3C(c3cc4ccccc4s3)Oc3cc(-c4cnc([C@@H]5CCCN5C(=O)[C@@H](NC(=O)OC)C5CCOCC5)[nH]4)ccc3-2)[nH]1)C(C)C (single isomer, unassigned) [Compound 624] | – | – | – | 0.494 | 0.0021 | 0.418 | –
CCc1ccc(C2Oc3cc(-c4cnc([C@@H]5CCCN5C(=O)[C@@H](NC(=O)OC)C(C)C)[nH]4)cc(F)c3-c3cc4cc(-c5cnc([C@@H]6C[C@H]7C[C@H]7N6C(=O)C(NC(=O)OC)C6CCOC(C)(C)C6)[nH]5)ccc4n32)s1 (single isomer, unassigned) [Compound 203] | 0.12 | 0.0016 | 0.83 | – | – | – | –
COC(=O)N[C@H](C(=O)N1CCC[C@H]1c1nc(-c2ccc3c(c2)OC(c2cc4sccc4s2)n2c-3cc3cc(-c4c[nH]c([C@@H]5C[C@H]6C[C@H]6N5C(=O)[C@@H](NC(=O)OC)C5CCOCC5)n4)ccc32)c[nH]1)C(C)C (mixture of isomers) [Compound 726] | – | – | – | – | – | – | IC50 [1, 9]: 0.047 nM; IC50 [2, 10]: 0.0063 nM; IC50 [3, 11]: 0.16 nM
CCc1ccc(C2Oc3cc(-c4cnc([C@@H]5CCCN5C(=O)C(NC(=O)OC)C5CCOC(C)(C)C5)[nH]4)cc(F)c3-c3cc4cc(-c5cnc([C@@H]6CCCN6C(=O)[C@@H](NC(=O)OC)C(C)C)[nH]5)ccc4n32)s1 (single isomer, unassigned) [Compound 159] | 0.77 | 0.0025 | 0.45 | – | – | – | –
COC(=O)N[C@H](C(=O)N1CCC[C@H]1c1ncc(-c2cc(F)c3c(c2)OC(c2cc4c(s2)CCCO4)n2c-3cc3cc(-c4cnc([C@@H]5CCCN5C(=O)[C@@H](NC(=O)OC)C5CCOC(C)(C)C5)[nH]4)ccc32)[nH]1)C(C)C (single isomer, unassigned) [Compound 411] | – | – | – | 0.78 | 0.001 | 0.2 | –
COC(=O)NC(C(=O)N1CCC[C@H]1c1ncc(-c2ccc3c(c2)cc2n3C(c3ccc(C4CC4)s3)Oc3cc(-c4cnc([C@@H]5C[C@@H](F)CN5C(=O)[C@@H](NC(=O)OC)C(C)C)[nH]4)cc(F)c3-2)[nH]1)C(C)(C)F (single isomer, unassigned) [Compound 112] | 0.23 | 0.0022 | 7.07 | – | – | – | –
COC(=O)N[C@H](C(=O)N1CCC[C@H]1c1ncc(-c2cc(F)c3c(c2)OC(c2scc4c2OCCO4)n2c-3cc3cc(-c4cnc([C@@H]5CCCN5C(=O)[C@@H](NC(=O)OC)C(C)C)[nH]4)ccc32)[nH]1)C(C)C (single isomer, unassigned) [Compound 524] | – | – | – | 14.5 | 0.00766 | 4.64 | –
COC(=O)NC(C(=O)N1CCC[C@H]1c1ncc(-c2cc(F)c3c(c2)OC(c2ccc(C(C)C)s2)n2c-3cc3cc(-c4cnc([C@@H]5CCCN5C(=O)[C@@H](NC(=O)OC)C(C)C)[nH]4)ccc32)[nH]1)C1CCOC(C)(C)C1 (single isomer, unassigned) [Compound 246] | – | – | – | – | – | – | IC50 [1, 7]: 0.58 nM; IC50 ([2]; Hepatitis C virus, replicon 1A): 0.0011 nM; IC50 [3, 8]: 0.27 nM
COC(=O)NC(C(=O)N1CCC[C@H]1c1ncc(-c2ccc3c(c2)cc2n3C(c3cc4ccccc4s3)Oc3cc(-c4cnc([C@@H]5CCCN5C(=O)[C@@H](NC(=O)OC)C(C)C)[nH]4)cc(F)c3-2)[nH]1)C1C[C@@H](C)O[C@@H](C)C1 (single isomer, unassigned) [Compound 642] | – | – | – | 0.066 | 0.0019 | 0.199 | –
CCc1ccc(C2Oc3cc(-c4cnc([C@@H]5CCCN5C(=O)[C@@H](NC(=O)OC)C(C)C)[nH]4)cc(C)c3-c3cc4cc(-c5cnc([C@@H]6CCCN6C(=O)C(NC(=O)OC)C6C[C@@H](C)O[C@@H](C)C6)[nH]5)ccc4n32)s1 (single isomer, unassigned) [Compound 544] | – | – | – | 0.29 | 0.00833 | 0.0319 | –
COC(=O)N[C@H](C(=O)N1C[C@H](F)C[C@H]1c1ncc(-c2ccc3c(c2)cc2n3C(c3cc4ccccc4s3)Oc3cc(-c4cnc([C@@H]5CCCN5C(=O)[C@@H](NC(=O)OC)C5CCOCC5)[nH]4)ccc3-2)[nH]1)C(C)C (single isomer, unassigned) [Compound 623] | – | – | – | 0.0213 | – | 0.345 | IC50 [2, 10]: 0.0024 nM
CC[C@@H]1CC(C(NC(=O)OC)C(=O)N2CCC[C@H]2c2ncc(-c3ccc4c(c3)cc3n4C(c4ccc(C5CC5)s4)Oc4cc(-c5cnc([C@@H]6CCCN6C(=O)[C@@H](NC(=O)OC)C(C)C)[nH]5)cc(F)c4-3)[nH]2)C[C@H](CC)O1 (single isomer, unassigned) [Compound 290] | 0.19 | 0.0011 | 0.34 | – | – | – | –
COC(=O)NC(C(=O)N1CCC[C@H]1c1ncc(-c2ccc3c(c2)cc2n3C(c3ccc(C4CC4)s3)Oc3cc(-c4cnc([C@@H]5CCCN5C(=O)[C@@H](NC(=O)OC)C(C)C)[nH]4)cc(F)c3-2)[nH]1)C1CCO[C@H](C)C1 (single isomer, unassigned) [Compound 140] | 5.51 | 0.0407 | 8.69 | – | – | – | –
COC(=O)NC(C(=O)N1CCC[C@H]1c1ncc(-c2ccc3c(c2)cc2n3C(c3ccc(C4CC4)s3)Oc3cc(-c4cnc([C@@H]5CCCN5C(=O)[C@@H](NC(=O)OC)C(C)C)[nH]4)cc(F)c3-2)[nH]1)C(C)(C)F (single isomer, unassigned) [Compound 76] | 2.55 | 0.0159 | 13.7 | – | – | – | –
COC(=O)N[C@H](C(=O)N1CCC[C@H]1c1nc(-c2cc(F)c3c(c2)OC(c2ccc(C4CC4)s2)n2c-3cc3cc(-c4c[nH]c([C@@H]5C[C@H]6C[C@H]6N5C(=O)[C@@H](NC(=O)OC)C(C)C)n4)ccc32)c[nH]1)C(C)C (single isomer, unassigned) [Compound 719] | – | – | – | 0.032 | 0.01 | 0.036 | –
